In patent US8324188B2, “Combinations of ET-18-O-CH3and anti-cancer agents for the treatment of cancer” (priority 2006, dated 2012):
Several values for one entry are separate records, joined by “and”; a condition that tells them apart may be missing. Equal values may be shown once.

Experiments:
LN-229 = experiment: WST-1 proliferation assay, LN-229; assay type: cell-based; conditions: Homo sapiens
Method: 2000 cells were plated in each well of 96-well flat bottom plates, and incubated overnight at 37 °C in 5% CO2. The growth of plated cells was measured by adding […] of WST-1 reagent (Roche Applied Sciences, Germany) to 3 control wells and measuring the absorbance at 650 nm and at 450 nm, respectively, with a SpectraMax250 plate reader. If the OD650-OD450 values were above 0.5, the remainder of the plate was used for incubation with AP-121, other pharmacological agents or solvent control for 96 hours.
(§1) After this incubation, VVST-1 reagent was added to the wells and OD650-OD450 values were calculated as before. six wells were assayed for each conditions and standard deviation was determined: all experiments were performed at least three times independently. After elucidation of individual IC50 values for each compound, the simultaneous combination treatment of AP-121 and the chemotherapeutic agent at their IC50 ratio was performed; combination index (CI) was determined by Calcusyn software package (Biosoft, Ferguson, Mo.). Data were evaluated by calculating the means of the combination index (CI), where a CI of <0.3 indicates a strong synergistic effect, 0.3<CI<0.7 a synergistic effect, 0.7<CI<0.9 moderate synergy, 0.9<CI<1 additive effect and CI>1 antagonistic effect, respectively.
For the AP-121 cell proliferation drug combination measurements, the ED50 was determined for each drug. Six different concentrations of each drug were used in combinations index measurements and compared to +/− cells, and compared to controls without compound. Each combination was repeated 6 times at 2 different time points (24 and 96 hours), each of the above experiments was repeated 3 times to obtain valid results.

LN-18 = experiment: WST-1 proliferation assay, LN-18; assay type: cell-based; conditions: Homo sapiens
Method: (§2) 2000 cells were plated in each well of 96-well flat bottom plates, and incubated overnight at 37 °C in 5% CO2. The growth of plated cells was measured by adding […] of WST-1 reagent (Roche Applied Sciences, Germany) to 3 control wells and measuring the absorbance at 650 nm and at 450 nm, respectively, with a SpectraMax250 plate reader. […] After this incubation, VVST-1 reagent was added to the wells and OD650-OD450 values were calculated as before. six wells were assayed for each conditions and standard deviation was determined: all experiments were performed at least three times independently. […] Six different concentrations of each drug were used in combinations index measurements and compared to +/− cells, and compared to controls without compound.

U118MG = experiment: WST-1 proliferation assay, U118MG; assay type: cell-based, human; conditions: Homo sapiens, U-118-MG
Method: as §2, with “AP-121 was prepared as 5 mM stock solution in distilled sterile water, Temozolomide (TMZ) (Haorui Pharma-Chem, Inc., Edison, N.J.) was prepared as 100 mM in sterile filtrated DMSO; Adriamycin (ADR) (Sigma) was prepared as 1 mM in distilled sterile water; Camptothecin (CTP) (Sigma) was prepared as 10 mM solution in 0.1 N NaOH; Tarceva (Proteinkinase, Germany) was prepared as 5 mM solution in sterile DMSO. All compound stocks were kept at −20° C. 2000” for “2000”, “compound. Each combination was repeated 6 times at 2 different time points (24 and 96 hours), each of the above experiments was repeated 3 times to obtain valid results.” for “compound.”

T98G = experiment: WST-1 proliferation assay, T98G; assay type: cell-based; conditions: Homo sapiens
Method: as §2, with “AP-121 was prepared as 5 mM stock solution in distilled sterile water, Temozolomide (TMZ) (Haorui Pharma-Chem, Inc., Edison, N.J.) was prepared as 100 mM in sterile filtrated DMSO; Adriamycin (ADR) (Sigma) was prepared as 1 mM in distilled sterile water; Camptothecin (CTP) (Sigma) was prepared as 10 mM solution in 0.1 N NaOH; Tarceva (Proteinkinase, Germany) was prepared as 5 mM solution in sterile DMSO. All compound stocks were kept at −20° C. 2000” for “2000”

U87MG = experiment: WST-1 proliferation assay, U87MG; assay type: cell-based, human; conditions: Homo sapiens, U-87 MG
Method: as §2, with “AP-121 was prepared as 5 mM stock solution in distilled sterile water, Temozolomide (TMZ) (Haorui Pharma-Chem, Inc., Edison, N.J.) was prepared as 100 mM in sterile filtrated DMSO; Adriamycin (ADR) (Sigma) was prepared as 1 mM in distilled sterile water; Camptothecin (CTP) (Sigma) was prepared as 10 mM solution in 0.1 N NaOH; Tarceva (Proteinkinase, Germany) was prepared as 5 mM solution in sterile DMSO. All compound stocks were kept at −20° C. 2000” for “2000”

A172 = experiment: WST-1 proliferation assay, A172; assay type: cell-based, human; conditions: Homo sapiens, A 172
Method: as §2, with “AP-121 was prepared as 5 mM stock solution in distilled sterile water, Temozolomide (TMZ) (Haorui Pharma-Chem, Inc., Edison, N.J.) was prepared as 100 mM in sterile filtrated DMSO; Adriamycin (ADR) (Sigma) was prepared as 1 mM in distilled sterile water; Camptothecin (CTP) (Sigma) was prepared as 10 mM solution in 0.1 N NaOH; Tarceva (Proteinkinase, Germany) was prepared as 5 mM solution in sterile DMSO. All compound stocks were kept at −20° C. 2000” for “2000”

NCI-H460 (FAS positive) = experiment: WST-1 proliferation assay, NCI-H460; assay type: cell-based, human; conditions: NCI-H460; single agent, per experiment line
Method: as §2, with “DDP and GMZ” for “Six different concentrations of each drug”, “both purchased from Sigma-aldrich Corp., St. Louis, Mo., USA. The following cell lines were used: A549 (FAS negative), NCI-H460 (FAS positive),” for “used in combinations index measurements”, “HCC827 (FAS positive), all obtained from the ATTC, Rockville, Md., USA.” for “compared to +/− cells, and compared to controls without compound.”

HCC827 (FAS positive) = experiment: WST-1 proliferation assay, HCC827; assay type: cell-based, human; conditions: single agent, per experiment line
Method: as §2, with “DDP and GMZ” for “Six different concentrations of each drug”, “both purchased from Sigma-aldrich Corp., St. Louis, Mo., USA. The following cell lines were used: A549 (FAS negative), NCI-H460 (FAS positive),” for “used in combinations index measurements”, “HCC827 (FAS positive), all obtained from the ATTC, Rockville, Md., USA.” for “compared to +/− cells, and compared to controls without compound.”

HeLa = conditions: mean ± SD from three independent experiments, read-out: ED50 values for induction of apoptosis; cited from earlier work
A431 = conditions: mean ± SD from three independent experiments, read-out: ED50 values for induction of apoptosis; cited from earlier work
LNCaP cells = experiment: flow cytometric analysis of annexin V-PE positive / 7-AAD negative LNCaP cells; assay type: cell-based, human; conditions: AD + R1881, no CHEM
Method: (§3) In a further approach, 10 μM 1-O-octadecyl-2-O-methyl-glycero-3-phosphocholine (final concentration; “CHEM”) and (ionizing) radiation (5 Gray units; “RT”) were administered simultaneously to the LNCaP cells but the subsequent incubation period was extended to 24 hours. Apoptosis was measured using the Apo-ONE™ Homogenous Caspase-3/7 Assay as described above and expressed as relative fluorescence units (RFLU). The percentage of apoptotic cells was determined by flow cytometric analysis of annexin V-PE positive-stained and 7-AAD (7-Amino ActinomycinD) negative-stained cells (both purchased from BD Biosciences, San Jose, Calif., USA) according to established standard protocols. The data represent means±SEM from three independent experiments.
Next, the interaction of 1-O-octadecyl-2-O-methyl-glycero-3-phosphocholine administration (“CHEM”) and androgen deprivation (“AD”) was investigated. LNCaP cells were deprived of androgen for two days by charcoal absorption of serum according to established procedures well known in the art. CHEM was added in a final concentration of 5 μM and 10 μM, respectively.
(§4) Apoptosis was measured using the Apo-ONE™ Homogenous Caspase-3/7 Assay as described above and expressed as relative fluorescence units (RFLU). The percentage of apoptotic cells was determined via annexin V-PE/7-AAD staining as described above. The caspase-317 assay and annexin staining were performed 22 hours after CHEM treatment.

[1] = tested on: LNCaP androgen-sensitive human prostate adenocarcinoma cells; experiment: Apo-ONE Homogenous Caspase-3/7 Assay in LNCaP cells; assay type: cell-based; conditions: AD + R1881, no CHEM
Method: FIG. 1. Depicts the in vitro effects of 1-O-octadecyl-2-O-methyl-glycero-3-phosphocholine (final concentration 10 μM), (ionizing) radiation (absorbed dose of 5 Gray units; indicated as “RT”), and a combination thereof on programmed cell death (apoptosis) and the survival rate of LNCaP androgen-sensitive human prostate adenocarcinoma cells. Apoptosis was determined using the Apo-ONE™ Homogenous Caspase-317 Assay, Promega, Inc., Madison, Wis., USA according to the manufacturers instructions. The percentage of living cancer cells was estimated by means of trypan blue dye exclusion as described (Freshney, R. I. (1994) Culture of Animal Cells: A Manual of Basic Technique. 3rd Ed. Wiley-Liss. New York. USA). The cells were exposed to radiation six hours after (FIG. 1A), concomitantly with (FIG. 1B), or six hours before administration of 1-O-octadecyl-2-O-methyl-glycero-3-phospho-choline (FIG. 1C). The caspase assay was performed 12 hours after exposure to radiation. The respective data shown represent the average of two independent experiments.
First, the in vitro effects of 1-O-octadecyl-2-O-methyl-glycero-3-phosphocholine, (ionizing) radiation, and a combination thereof on programmed cell death (apoptosis) and the survival rate of LNCaP androgen-sensitive human prostate adenocarcinoma cells were measured. The LNCaP cell line was established from a metastatic lesion of the adenocarcinoma. The cells were treated with a final concentration of 10 μM 1-O-octadecyl-2-O-methyl-glycero-3-phosphocholine and (ionizing) radiation corresponding to an absorbed dose of 5 Gray units.
Apoptosis was determined using the Apo-ONE™ Homogenous Caspase-3/7 Assay, Promega, Inc., Madison, VV1, USA according to the manufacturers instructions. The percentage of living tumor cells was estimated by means of trypan blue dye exclusion as described (Freshney, R. I. (1994) Culture of Animal Cells: A Manual of Basic Technique. 3rd Ed. Wiley-Liss. New York. USA)
The cells were exposed to radiation six hours after (FIG. 1A), concomitantly with (FIG. 1B), or six hours before administration of 1-O-octadecyl-2-O-methyl-glycero-3-phospho-choline (FIG. 1C). The caspase assay was performed 12 hours after exposure to radiation. The respective data shown represent the average of two independent experiments.
as §3, §4

[2] = tested on: brain tumor cell lines U87MG, A172, LN-18, LN-229, U118MG, and T98G; experiment: WST-1 proliferation assay, summaries over the brain tumor cell line panel; assay type: cell-based, human; conditions: together with AP-121; all three cell lines (U87MG, A172, U118MG)
Method: As a biological test panel, we selected the brain tumor cell lines U87MG, A172, LN-18, LN-229, U118MG, and T98G that have different levels of mutations in p53 and PTEN as well as FAS receptor expression:
2000 cells were plated in each well of 96-well flat bottom plates, and incubated overnight at 37 °C in 5% CO2. The growth of plated cells was measured by adding […] of WST-1 reagent (Roche Applied Sciences, Germany) to 3 control wells and measuring the absorbance at 650 nm and at 450 nm, respectively, with a SpectraMax250 plate reader. […]
as §1, with “respectively. […]” for “respectively.”

| SMILES | IC50 (LN-229) [µM] | IC50 (LN-18) [µM] | IC50 (U118MG) [µM] | IC50 (T98G) [µM] | IC50 (U87MG) [µM] | IC50 (A172) [µM] | further results |
| --- | --- | --- | --- | --- | --- | --- | --- |
| COc1cccc2c1C(=O)c1c(O)c3c(c(O)c1C2=O)C[C@@](O)(C(=O)CO)C[C@@H]3O[C@H]1C[C@H](N)[C@H](O)[C@H](C)O1 [ADR, Adriamycin] | 0.13 | 0.09 | 0.12 | 0.17 | 0.11 | 0.07 |  |
| CC[C@@]1(O)C(=O)OCc2c1cc1n(c2=O)Cc2cc3ccccc3nc2-1 [CPT, Camptothecin] | 0.02 | 0.04 | 0.004 | 0.02 | 0.04 | 0.02 |  |
| [NH2][Pt]([NH2])([Cl])[Cl] [DDP, cisplatinum, reference compound] |  |  |  |  |  |  | IC50 (NCI-H460 (FAS positive)): 1.3 µM; IC50 (HCC827 (FAS positive)): 3.4 µM and 3.5 µM |
| Nc1ccn([C@@H]2O[C@H](CO)[C@@H](O)C2(F)F)c(=O)n1 [GMZ, gemicitabin, reference compound] |  |  |  |  |  |  | IC50 (NCI-H460 (FAS positive)): 0.003 µM and 0.006 µM |
| CCCCCCCCCCCCCCCCOP(=O)([O-])OCC[N+](C)(C)C [HePC] |  |  |  |  |  |  | EC50 (HeLa): 8.17 ± 0.4 µM; EC50 (A431): 17.3 ± 3 µM |
| CCCCCCCCCCCCCCCCCCOP(=O)([O-])OC1CC[N+](C)(C)CC1 [Perifosine] |  |  |  |  |  |  | EC50 (HeLa): 9.27 ± 1.8 µM; EC50 (A431): 23.2 ± 2.7 µM |
| C[C@]1(O)CC[C@H]2[C@@H]3CCC4=CC(=O)CCC4=C3C=C[C@@]21C [R1881, reference compound] |  |  |  |  |  |  | % Annexin V-PE pos. cells (LNCaP cells): 7.0%; Caspase-3/7 activity (RFLU) [1]: 130 RFLU |
| Cn1nnc2c(C(N)=O)ncn2c1=O [TMZ, Temozolomide] | 278 | 554 | 382 | 608 | 425 | 38.3 | effect of combination [2]: strong synergistic effect (a CI of <0.3 indicates a strong synergistic effect) |
| C#Cc1cccc(Nc2ncnc3cc(OCCOC)c(OCCOC)cc23)c1 [Tarceva] | 3.9 | 20 | 18.8 | 14.4 | 5.9 | 18.8 |  |
